The target in series [1] is TRPV1 ion channel (Homo sapiens, UniProt Q8NER1). As to conditions: depending on the pharmacological assay; cited from earlier work.
Series [2] has as its system lesion-induced motor deficits. Kind of series: FIG. 23D: % intact stepping. It counts as in vivo. The settings on record: L-DOPA alone or with AMA 40 mg/kg and/or VZD 2.5 mg/kg.
The conditions of series [3]: cited from earlier work.
Series [4] deals with dyskinesia. As to conditions: human and animal studies; cited from earlier work.
Series [5] concerns L-DOPA-induced dyskinesia. Kind of series: FIG. 24: LID development over 14 days, vilazodone and/or amantadine. The settings on record: for ALO AIMs, LID development: over 14 days. It counts as in vivo. From the text: FIGS. 24B-24E show percent intact+S.E.M. over time for the respective groups.
For series [6], the system named is L-DOPA-induced dyskinesia. Kind of series: FIG. 23A-23C: ALO AIMs, vilazodone and/or amantadine with L-DOPA. As to conditions: for ALO AIMs, combined amantadine and vilazodone: VZD 2.5 mg/kg, AMA 40 mg/kg, L-DOPA.
For series [7], the system named is extracellular levels of norepinephrine or dopamine. The settings on record: 1 and 10 mg/kg; cited from earlier work.
In series [8] the test system is L-DOPA-primed 6-OHDA-lesioned rats; 5-HT1BR. Kind of series: Experiment 3: AIMs with 5-HT1BR antagonist NAS-181. Type of series: in vivo, rat. As to conditions: VZD 10 mg/kg, NAS-181 3.0 mg/kg, LD 6 mg/kg s.c.
Experimental: All 6-OHDA-lesioned rats (n=17) were tested on the FAS prior to treatment regimens to establish baseline motor performance. Three-weeks post-surgery, all rats were primed with L-DOPA (6 mg/kg, s.c.) for 14 days.
Beginning 10 min post-treatment, a trained and blinded observer assigned a severity score (0-4) to each of the ALO AIMs based on 1 min ratings every 10 min for 3 h: 0, not present; 1, present from 1-29 s; 2, present 30-59s; 3, present all 60 s, but interruptible by a cylinder tap; 4, present 60 s and not interruptible by a cylinder tap.
Series [9] deals with DAT (Homo sapiens, UniProt Q01959). As to conditions: cited from earlier work.
Series [10] has as its target T1, 5-HT1A receptor expressed in SF9 cells (Homo sapiens, UniProt P08908).
T1 construct: expressed in transfected cells; host or cells: SF9 cells
T1 sequence (P08908 1-422): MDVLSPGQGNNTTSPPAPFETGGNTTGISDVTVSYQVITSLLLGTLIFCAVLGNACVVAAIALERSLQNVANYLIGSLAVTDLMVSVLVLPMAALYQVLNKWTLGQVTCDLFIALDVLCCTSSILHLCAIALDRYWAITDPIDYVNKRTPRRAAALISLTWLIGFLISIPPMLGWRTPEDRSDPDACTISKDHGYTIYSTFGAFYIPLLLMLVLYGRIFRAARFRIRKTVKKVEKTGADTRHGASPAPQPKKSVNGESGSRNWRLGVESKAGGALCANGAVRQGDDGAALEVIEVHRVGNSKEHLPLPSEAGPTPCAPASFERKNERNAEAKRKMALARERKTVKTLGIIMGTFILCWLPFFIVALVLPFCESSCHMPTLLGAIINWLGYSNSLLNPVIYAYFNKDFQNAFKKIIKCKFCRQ
The settings on record: cited from earlier work.

Series [11] deals with striatal c-Fos, PPD, PPE, PPT, 5-HT1AR mRNA. Kind of series: Experiment 2: real-time RT-PCR of striatal gene expression. (In qPCR the cycle at which signal appears reflects the starting amount.)
Series [12] concerns 6-OHDA-lesioned rats, L-DOPA-induced dyskinesia. Kind of series: Experiment 2: AIMs, LID development in L-DOPA-naive hemi-parkinsonian rats. Type of series: in vivo, rat. The settings on record: VZD 10 or 20 mg/kg + LD 6 mg/kg, treatment naive, 3 weeks.
In series [13] the test system is 6-OHDA-lesioned rats, L-DOPA-induced dyskinesias. Kind of series: Example 2: LIDs scoring in unilateral 6-OHDA-lesioned rats. Type of series: in vivo, rat. As to conditions: vilazodone 10 mg/kg or escitalopram 12.5 mg/kg + L-DOPA 5 mg/kg, 2 weeks. The method, then: 6-OHDA-induced dopaminergic lesions: Adult male Sprague-Dawley rats were randomly assigned to groups receiving either a 6-OHDA or sham lesion. […] [[…] 2019]. […] Rats were treated for 5 consecutive days/week (Mon-Fri), for 2 weeks. […] All rats were evaluated three times per week for the presence of L-DOPA-induced dyskinesias (LIDs) (Wed-Fri) and once for the stepping test (Tue). […] Scores were given over 1 min epochs and classified as axial, limb, orolingual and locomotive. […] The severity of each LID was scored using a standard scale. Each dyskinetic behavior was given an intensity and frequency score, which were then multiplied. The average sum of the products of each LID was determined in each animal.

Series [14] has as its system hemi-parkinsonian rats. Kind of series: Side effects during chronic Vilazodone treatment. Type of series: in vivo, rat.
Series [15] has as its system MSNs of dyskinetic 6-OHDA-lesioned rats. Kind of series: Example 2: electrophysiology of striatal MSNs. It counts as in vivo, rat. The settings on record: co-administration with L-DOPA.
In series [16] the test system is 6-OHDA-lesioned rats, L-DOPA-induced dyskinesia. Kind of series: Experiment 1: AIMs, established LID in L-DOPA-primed hemi-parkinsonian rats. Type of series: in vivo, rat.
Series [17] concerns 6-OHDA-lesioned rats, forelimb akinesia. Kind of series: Example 2: stepping test. It counts as in vivo, rat. As to conditions: 60 minutes post L-DOPA.
Experimental: 6-OHDA-induced dopaminergic lesions: Adult male Sprague-Dawley rats were randomly assigned to groups receiving either a 6-OHDA or sham lesion. All rats received desipramine (10 mg/kg i.p.) 30 min prior to surgery to prevent the lesioning of norepinephrine neurons by 6-OHDA. A single injection of 6-OHDA (8 μg of 6-OHDA free base in 4 p of 0.1% ascorbic acid) was delivered into the right medial forebrain bundle (coordinates taken from bregma: −4.3 mm AP, 1.6 mm ML, −8.3 mm DV). The same experimental treatment was performed for the sham-operated rats using vehicle (4 μl of 0.1% ascorbic acid). A standard stepping test was used to evaluate the effectiveness of the 6-OHDA lesion.
Rats were treated for 5 consecutive days/week (Mon-Fri), for 2 weeks. On the second day of each week, stepping tests were performed prior to drug administration, and 60 minutes post L-DOPA treatment.
In series [18] the test system is striatum and DRN monoamines and metabolites. Kind of series: Experiment 1: HPLC of striatal and dorsal raphe tissue monoamines. It counts as in vivo, rat.
Experimental: Rats (n=30) were rendered hemi-parkinsonian with unilateral 6-OHDA lesions of the left MFB. Three-weeks post-lesion, animals were divided into 2 equally disabled groups, measured by forepaw adjusting steps (FAS, see below). One group (n=8) began receiving 14 days of daily vehicle (0.9% NaCl+0.1% ascorbic acid) and the other (n=22) received L-DOPA methyl ester (6 mg/kg, s.c.; Sigma)+DL-serine 2-(2,3,4-trihydroxybenzyl) hydrazine hydrochloride (benserazide; 15 mg/kg, s.c.; Sigma), hereafter L-DOPA, dissolved in vehicle at a volume of 1 mL/kg. […] Thereafter, L-DOPA-treated animals with Axial, Limb, and Orolingual (ALO) AIMs (see description below, FIG. 1A)<30 were excluded from the study and the remaining L-DOPA-treated animals were divided into 3 equally dyskinetic groups. […] Daily injections continued over 23 days, with behavior assayed on Days 15, 22, 29, and 36. On Day 37, animals were killed 60 min post-treatment. Left and right dorsal striata and DRN were dissected and flash frozen for HPLC analyses.
High-performance liquid chromatography (HPLC): HPLC, a method for semi-automated catecholamine analysis with coulometric detection, was performed according to prior protocols (Bishop et al., 2009) to determine the tissue levels of monoamines, their metabolites, and monoamine turnover in the striatum and DRN. The limit of detection for DOPAC, DA, 5-hydroxyindoleacetic acid (5-HIAA) and 5-HT was 10^−10 M. Final oxidation current values were plotted on a standard curve from 10^−6 M to 10^−9 M and expressed as pg of monoamine or metabolite per mg of tissue unless otherwise specified.
On the final treatment day, animals were sacrificed 60 min post-LD treatment and left and right striata and dorsal raphe nucleus (DRN) were collected for high performance liquid chromatography (HPLC) analysis. Values (means±standard mean error) are expressed as picograms of monoamine or metabolite per milligram wet tissue weight. Turnover estimates were determined by dividing a subject's metabolite value by its corresponding monoamine.
For series [19], the system named is L-DOPA-primed 6-OHDA-lesioned rats; 5-HT1AR.
In series [20] the target is NET (Homo sapiens, UniProt P23975). The settings on record: cited from earlier work.
Series [21] concerns 6-OHDA-lesioned rats, forelimb akinesia. Kind of series: Experiment 1: forepaw adjusting steps (FAS). It counts as in vivo, rat. From the text:
Conti et al., 2014). […] Forepaw adjusting steps (FAS): The FAS test is a measure of forelimb akinesia performed according to previous protocols (Bishop et al., 2012; Chang et al., 1999). Data are presented as mean percent intact stepping where the sum of the total steps with the lesioned forepaw was divided by the total steps with the unlesioned forepaw multiplied by 100. Lower percent intact scores indicate greater forelimb akinesia. Prior to baseline, rats received 2 acclimation periods. On-treatment FAS was performed 60 min post-L-DOPA.

Series [22] has the same test system. Kind of series: Experiment 2: forepaw adjusting steps (FAS). It counts as in vivo, rat. From the text: Forepaw adjusting steps (FAS): The FAS test is a measure of forelimb akinesia performed according to previous protocols (Bishop et al., 2012; Chang et al., 1999). Data are presented as mean percent intact stepping where the sum of the total steps with the lesioned forepaw was divided by the total steps with the unlesioned forepaw multiplied by 100. Lower percent intact scores indicate greater forelimb akinesia. Prior to baseline, rats received 2 acclimation periods. On-treatment FAS was performed 60 min post-L-DOPA.

Series [23] concerns the target SERT (Homo sapiens, UniProt P31645). As to conditions: clinically effective dose range 5-20 mg/day; cited from earlier work.

The source of these data is US12285426B2, “Combination serotonin specific reuptake inhibitor and serotonin 1A receptor partial agonist for reducing L-DOPA-induced dyskinesia” (The Research Foundation for The State University of new York, priority 2018, dated 2025).

A value given as a limit tells only on which side of the number the result lay.

Sequence of TRPV1 ion channel (Q8NER1 whole entry): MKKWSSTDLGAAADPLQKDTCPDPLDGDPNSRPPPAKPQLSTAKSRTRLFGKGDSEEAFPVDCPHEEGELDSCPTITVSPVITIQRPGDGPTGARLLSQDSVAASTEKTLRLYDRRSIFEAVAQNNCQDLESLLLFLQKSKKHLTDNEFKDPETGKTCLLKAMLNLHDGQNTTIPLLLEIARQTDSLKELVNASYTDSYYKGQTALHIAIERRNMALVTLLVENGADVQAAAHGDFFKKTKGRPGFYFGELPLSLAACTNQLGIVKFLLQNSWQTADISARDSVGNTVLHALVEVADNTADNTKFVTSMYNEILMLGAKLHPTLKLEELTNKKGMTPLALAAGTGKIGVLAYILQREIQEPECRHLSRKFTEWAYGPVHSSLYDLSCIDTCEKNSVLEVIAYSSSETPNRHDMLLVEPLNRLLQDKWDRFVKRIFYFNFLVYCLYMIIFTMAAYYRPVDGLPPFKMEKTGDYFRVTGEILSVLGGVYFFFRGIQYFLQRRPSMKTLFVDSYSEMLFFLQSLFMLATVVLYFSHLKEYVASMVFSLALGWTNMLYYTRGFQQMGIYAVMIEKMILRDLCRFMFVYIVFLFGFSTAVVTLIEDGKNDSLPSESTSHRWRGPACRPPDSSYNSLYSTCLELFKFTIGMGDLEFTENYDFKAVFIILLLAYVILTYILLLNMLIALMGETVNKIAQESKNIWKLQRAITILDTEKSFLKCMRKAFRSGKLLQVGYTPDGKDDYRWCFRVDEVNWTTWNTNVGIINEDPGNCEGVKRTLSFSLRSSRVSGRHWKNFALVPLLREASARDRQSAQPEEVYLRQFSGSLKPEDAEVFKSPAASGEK
Sequence of DAT (Q01959 whole entry, species assumed): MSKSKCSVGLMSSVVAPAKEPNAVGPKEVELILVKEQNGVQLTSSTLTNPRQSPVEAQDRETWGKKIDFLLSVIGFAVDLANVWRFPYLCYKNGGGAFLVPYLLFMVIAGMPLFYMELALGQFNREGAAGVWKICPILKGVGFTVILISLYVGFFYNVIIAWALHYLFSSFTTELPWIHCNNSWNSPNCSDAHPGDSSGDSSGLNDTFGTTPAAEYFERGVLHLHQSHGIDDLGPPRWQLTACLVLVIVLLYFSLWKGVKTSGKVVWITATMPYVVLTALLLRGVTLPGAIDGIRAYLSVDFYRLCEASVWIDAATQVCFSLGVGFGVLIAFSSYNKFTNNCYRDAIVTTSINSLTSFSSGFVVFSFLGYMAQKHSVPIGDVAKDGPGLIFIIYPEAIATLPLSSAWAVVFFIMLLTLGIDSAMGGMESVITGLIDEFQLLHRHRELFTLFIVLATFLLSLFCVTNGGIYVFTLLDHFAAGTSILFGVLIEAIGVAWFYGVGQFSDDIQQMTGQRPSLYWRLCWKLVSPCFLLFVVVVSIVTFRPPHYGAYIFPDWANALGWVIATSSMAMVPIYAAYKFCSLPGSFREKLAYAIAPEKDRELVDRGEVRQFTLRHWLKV
Sequence of NET (P23975 whole entry): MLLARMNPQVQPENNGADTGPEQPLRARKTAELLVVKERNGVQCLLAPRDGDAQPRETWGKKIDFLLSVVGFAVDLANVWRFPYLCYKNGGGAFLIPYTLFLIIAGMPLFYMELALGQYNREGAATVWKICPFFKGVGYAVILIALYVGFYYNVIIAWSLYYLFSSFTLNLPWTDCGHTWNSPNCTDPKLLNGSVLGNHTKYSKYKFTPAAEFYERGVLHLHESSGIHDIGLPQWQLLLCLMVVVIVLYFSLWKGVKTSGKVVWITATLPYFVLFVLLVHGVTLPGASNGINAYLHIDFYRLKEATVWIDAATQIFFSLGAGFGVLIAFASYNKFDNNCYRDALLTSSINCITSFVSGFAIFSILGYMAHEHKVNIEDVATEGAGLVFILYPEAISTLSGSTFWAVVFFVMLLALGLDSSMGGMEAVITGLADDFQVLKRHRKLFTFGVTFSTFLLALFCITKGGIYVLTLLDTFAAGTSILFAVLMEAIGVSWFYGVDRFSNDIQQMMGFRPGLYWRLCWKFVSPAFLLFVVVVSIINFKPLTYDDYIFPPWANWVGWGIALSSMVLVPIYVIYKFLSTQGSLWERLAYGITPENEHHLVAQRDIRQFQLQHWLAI
Sequence of SERT (P31645 whole entry, species assumed): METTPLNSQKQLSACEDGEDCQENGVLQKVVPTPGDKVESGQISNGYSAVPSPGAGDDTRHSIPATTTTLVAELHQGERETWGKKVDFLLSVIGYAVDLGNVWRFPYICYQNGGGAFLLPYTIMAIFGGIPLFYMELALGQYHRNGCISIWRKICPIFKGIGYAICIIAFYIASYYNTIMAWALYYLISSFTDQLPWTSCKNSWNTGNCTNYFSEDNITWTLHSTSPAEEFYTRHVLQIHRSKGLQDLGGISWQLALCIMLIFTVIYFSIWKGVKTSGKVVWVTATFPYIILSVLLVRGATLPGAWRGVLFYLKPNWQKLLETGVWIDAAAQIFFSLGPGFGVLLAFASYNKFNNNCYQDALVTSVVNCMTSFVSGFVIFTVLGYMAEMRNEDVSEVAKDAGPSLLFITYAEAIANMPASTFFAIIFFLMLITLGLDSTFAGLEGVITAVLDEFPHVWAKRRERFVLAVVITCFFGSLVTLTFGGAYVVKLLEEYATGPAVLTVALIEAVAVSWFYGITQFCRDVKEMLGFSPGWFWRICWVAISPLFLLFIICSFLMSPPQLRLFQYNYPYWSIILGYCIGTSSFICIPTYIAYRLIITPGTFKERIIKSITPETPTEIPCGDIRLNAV

`Oc1cc2c(cc1O)CN(C(=S)NCCc1ccc(Cl)cc1)CCC2` [Capsazepine]: the IC50 (usually the midpoint of a concentration-inhibition curve) in [1] is “nanomolar to low micromolar range”.
Regarding `NC12CC3CC(CC(C3)C1)C2` [Amantadine, 1-adamantanamine], in [2], the “% intact stepping” value was “may reduce improvements”. For the same molecule, the peak plasma concentrations in [3] (IR 100 mg twice a day) was < 1,000 ng/mL. For the same molecule, the half-life result in [3] (in vivo) is on record as “around 17 hours”. For the same molecule, the maximum plasma concentration entry in series [3] (single dose 100 mg) is recorded as “around 220 ng/mL”. In addition, the “EC50 (plasma level reducing dyskinesia by 50%)” value in [4] was 1,400 ng/mL. Moreover, the “ALO AIMs, LID development” value in series [5] was “initially reduced AIMs, but this suppression diminished over time”. Moreover, the side effects entry in [6] (AMA 60 mg/kg) is “appeared to produce side effects”. For the same molecule, the “ALO AIMs” value in series [6] (AMA 20, 40, 60 mg/kg + L-DOPA) is “did not appear to alter AIMs”. In addition, in series [6], the “ALO AIMs, combined amantadine and vilazodone” value is given as “counteracted by Amantadine”.
For the molecule `Cl.N#Cc1ccc2[nH]cc(CCCCN3CCN(c4ccc5oc(C(N)=O)cc5c4)CC3)c2c1` [Vilazodone, 5-{4-[4-(5-cyano-3-indolyl)-butyl]-1-piperazinyl}-benzofuran-2-carboxamide hydrochloride], the “change in extracellular levels of norepinephrine or dopamine” value in [7] is on record as “no change”. Also, the “ALO AIMs” value is on record as “significantly reduced ALO AIMs” in series [8]; “moderately” in series [6] (VZD 5 mg/kg + L-DOPA); “modestly reduced AIMs” in [6] (VZD 1 and 2.5 mg/kg + L-DOPA). The IC50 in series [9] is 37 nM; in series [20], 56 nM. The “increase of [35S]GTPyS binding compared to vehicle” value in [10] was “fourfold”. Also, the “striatal PPE mRNA” value in series [11] (lesioned striata, LD 6 mg/kg, VZD 20 mg/kg, day 23) was “modestly, though significantly reduced”. For the same molecule, in series [11] (lesioned striata, LD 6 mg/kg, VZD 10/20 mg/kg, day 23), the “striatal PPD mRNA” value was “dose-dependently attenuated”. Also, the “striatal c-Fos mRNA” value in series [11] (lesioned striata, LD 6 mg/kg, VZD 10 or 20 mg/kg, day 23) was “diminished by either dose”. In addition, the “striatal 5-HT1AR mRNA” value in series [11] (rat, in vivo) is recorded as “did not affect striatal 5-HT1AR mRNA”. For the same molecule, the “striatal PPT mRNA” value in series [11] (rat, in vivo) is on record as “reduced striatal PPT”. The figures for the “ALO AIMs, LID development” value in series [12] and in series [5] were “significantly attenuated the development of LID” and “persistently reduced AIMs”, respectively. Moreover, the LIDs severity entry in [13] is recorded as “most significant effect on attenuating LIDs”. The “side effects, like 5-HT syndrome” value in series [14] is given as “weren't observed at any time point”. In [15], the “spike probability and onset latency” value is “normalizes spike probability and onset latency”. Also, the “ALO AIMs, established LID” value in series [16] (VZD 10 or 20 mg/kg s.c. 5 min before LD 6 mg/kg, vs VZD(0)+LD(6), from first day, persisted throughout treatment) is reported as “dramatically reduced AIMs”. Besides, in [16] (dissipated after the first week), the “anti-LID efficacy, 20 mg/kg vs 10 mg/kg” value is listed as “initially had greater anti-LID efficacy than the lower dose”. The “reduction of development and expression of LID, compared with Amantadine” value in series [5] (validated rodent model) is on record as “more effective than Amantadine”. Also, the “forelimb akinesia / L-DOPA therapeutic (prokinetic) efficacy” value in series [17] is “no effects on forelimb akinesia or L-DOPA-induced prokinetic effects”. In [6], the “ALO AIMs, combined amantadine and vilazodone” value is given as “continued to reduced AIMs”. In series [18] (Dorsal Raphe Nucleus, VZD(10)+LD(6) mg/kg s.c.), the 5-HIAA came to 12541 pg/mg wet tissue weight. In series [18] (Striatum Lesion, VZD(10)+LD(6) mg/kg s.c.), the “5-HT Turnover” value is on record as 8.38. The “DRN 5-HT” value in series [18] (VZD 10 mg/kg + LD) is on record as “significantly increased DRN 5-HT”. Further, the “striatal 5-HIAA” value in [18] (VZD 20 mg/kg) was “attenuated 5-HIAA compared to all other treatments”. Also, the “striatal 5-HT Turnover” value in series [18] (VZD 20 mg/kg vs VZD(0)+LD(0)) is “reduced 5-HT Turnover”. The “DRN DA Turnover” value in [18] (VZD 10 or 20 mg/kg + LD) was “DA Turnover was attenuated”. In addition, in series [18] (both doses VZD + LD), the “DRN 5-HT Turnover” value is listed as “attenuated 5-HT Turnover”. The “DA in lesioned striatum (planned comparisons)” value in [18] (both doses VZD vs VZD vehicle groups) was “significantly increased DA in the lesioned striatum”. Moreover, the “LID duration (time course)” value in series [19] (VZD 10 mg/kg + LD 6 mg/kg) is given as “little effect on LID duration”. Moreover, in series [19] (VZD 10 mg/kg + LD 6 mg/kg), the “peak dyskinesia (time course)” value is reported as “reduced peak dyskinesia”. Further, the “summed ALO AIMs” value in series [19] (VZD 10 mg/kg, WAY 0.5 mg/kg, LD 6 mg/kg s.c.) was “significantly reduced ALO AIMs”. Moreover, in [21] (LD 6 mg/kg alone or with VZD 10/20 mg/kg), the “FAS motor performance vs baseline” value was “emerged 7 days later”. Besides, in series [21] (VZD 20 mg/kg, Day 29, transient), the “FAS stepping vs VZD(0)+LD(6)” value is on record as “depressed stepping”. The FAS vs baseline entry in series [22] (LD 6 mg/kg alone or with VZD) is on record as “significant increases in stepping, relative to baseline, from Day 8 thereafter”. Besides, in series [22] (VZD 10 mg/kg + LD 6 mg/kg, by Day 15), the “FAS vs VZD(0)+LD(6)” value is on record as “significantly enhanced the pro-motor effects of L-DOPA”.
In the case of `Cc1ccc(Sc2ccccc2N2CCNCC2)c(C)c1` [Vortioxetine], the SERT occupancy in series [23] was 50 to 80%.
